Results: patent US6894072B2, “Compounds as NS3-serine protease inhibitors of hepatitis C virus” (Schering Corporation, priority 2002, dated 2005)

These compounds were tested against T1, HCV serine protease (Hepatitis C virus genotype 1a, UniProt P27958) (assay: Spectrophotometric assay for HCV protease inhibitory activity). Details: procedure of WO 02/08244.
T1 construct: Spectrophotometric assay for the HCV serine protease
Type: biochemical
Experimental: Assay for HCV Protease Inhibitory Activity: Spectrophotometric Assay: Spectrophotometric assay for the HCV serine protease was performed on the inventive compounds by following the procedure described in PCT Publication No. WO 02/08244 published Jan. 31, 2002. The activity of the compounds in Table 1 is shown in the same Table.

T1 sequence (P27958 1027-1657): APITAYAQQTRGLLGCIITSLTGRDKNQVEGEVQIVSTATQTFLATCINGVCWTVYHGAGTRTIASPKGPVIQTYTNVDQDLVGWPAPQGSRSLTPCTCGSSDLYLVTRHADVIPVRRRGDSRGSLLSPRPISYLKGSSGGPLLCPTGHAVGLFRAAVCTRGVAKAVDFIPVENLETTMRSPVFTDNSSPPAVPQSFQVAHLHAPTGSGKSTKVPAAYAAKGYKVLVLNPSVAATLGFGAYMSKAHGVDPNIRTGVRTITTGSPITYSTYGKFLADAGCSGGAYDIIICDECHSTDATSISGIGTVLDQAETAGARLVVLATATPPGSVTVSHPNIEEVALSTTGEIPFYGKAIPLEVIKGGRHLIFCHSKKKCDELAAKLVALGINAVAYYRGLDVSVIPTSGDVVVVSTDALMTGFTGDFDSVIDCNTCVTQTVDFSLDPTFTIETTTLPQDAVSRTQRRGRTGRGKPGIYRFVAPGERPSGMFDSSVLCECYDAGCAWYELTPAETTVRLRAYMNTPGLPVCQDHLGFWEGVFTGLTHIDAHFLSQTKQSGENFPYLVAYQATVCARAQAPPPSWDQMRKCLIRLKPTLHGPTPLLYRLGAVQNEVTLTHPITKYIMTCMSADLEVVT
T1 sequence (P27958 1658-1711): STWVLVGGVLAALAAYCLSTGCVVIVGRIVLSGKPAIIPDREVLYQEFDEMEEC

Activity (binding activity)	Compound
A (Binding activity A: <5 μM)	COC(=O)[C@@H]1CCN1C(=O)C(=O)C(CC1CCC1)NC(=O)[C@@H]1C2C(CN1C(=O)[C@@H](NC(=O)OC(C)(C)C)C1CCCCC1)C2(C)C (stereo partly shown) [Entry 2]
A (Binding activity A: <5 μM)	CC(C)(C)OC(=O)N[C@H](C(=O)N1CC2C([C@H]1C(=O)NC(CC1CCC1)C(=O)C(=O)N1CCC1)C2(C)C)C1CCCCC1 (stereo partly shown) [Entry 1]
A (Binding activity A: <5 μM)	CC(C)(C)OC(=O)N[C@H](C(=O)N1CC2C([C@H]1C(=O)NC(CC1CCC1)C(=O)C(=O)N1CC[C@H]1C(=O)O)C2(C)C)C1CCCCC1 (stereo partly shown) [Entry 3]
A (Binding activity A: <5 μM)	CC(C)(C)OC(=O)N[C@H](C(=O)N1CC2C([C@H]1C(=O)NC(CC1CCC1)C(=O)C(=O)N1CC[C@H]1C(=O)OCc1ccccc1)C2(C)C)C1CCCCC1 (stereo partly shown) [Entry 4]
